Experimental data taken from the NIST ThermoML archive (doi:10.1016/j.jct.2011.12.035).

Assay: xn = mol fraction of the nth substance listed
Settings: Gas, Buoyancy - hydrostatic balance with magnetic suspension - one sinker

N#N [nitrogen] + O=C=O
Settings | mass density [kg/m3]
324.98 K, 10004 kPa, x2 = 0.501 | 153.908
324.98 K, 11001 kPa, x2 = 0.501 | 171.162
324.98 K, 12005 kPa, x2 = 0.501 | 188.662
324.98 K, 13008 kPa, x2 = 0.501 | 206.25
324.98 K, 14011 kPa, x2 = 0.501 | 223.826
324.98 K, 14991 kPa, x2 = 0.501 | 240.922
324.98 K, 16018 kPa, x2 = 0.501 | 258.66
324.98 K, 17012 kPa, x2 = 0.501 | 275.602
324.98 K, 18018 kPa, x2 = 0.501 | 292.404
324.98 K, 19023 kPa, x2 = 0.501 | 308.813
324.98 K, 19436 kPa, x2 = 0.501 | 315.426
349.95 K, 1995.5 kPa, x2 = 0.2 | 21.523
349.95 K, 3995.9 kPa, x2 = 0.2 | 43.283
349.95 K, 5996.5 kPa, x2 = 0.2 | 65.117
349.95 K, 7996.2 kPa, x2 = 0.2 | 86.91
349.95 K, 9978.8 kPa, x2 = 0.2 | 108.381
349.95 K, 11996 kPa, x2 = 0.2 | 129.976
349.95 K, 13995 kPa, x2 = 0.2 | 151.019
349.95 K, 15999 kPa, x2 = 0.2 | 171.67
349.95 K, 17993 kPa, x2 = 0.2 | 191.695
349.95 K, 19820 kPa, x2 = 0.2 | 209.531
349.96 K, 983.48 kPa, x2 = 0.501 | 12.303
349.96 K, 1988.3 kPa, x2 = 0.501 | 25.152
349.96 K, 2996.4 kPa, x2 = 0.501 | 38.326
349.96 K, 3997 kPa, x2 = 0.501 | 51.667
349.96 K, 4995.9 kPa, x2 = 0.501 | 65.24
349.96 K, 5996.2 kPa, x2 = 0.501 | 79.074
349.96 K, 6995.9 kPa, x2 = 0.501 | 93.129
349.96 K, 7995.5 kPa, x2 = 0.501 | 107.379
349.96 K, 8996.2 kPa, x2 = 0.501 | 121.83
349.96 K, 9996.3 kPa, x2 = 0.501 | 136.421
349.96 K, 10998 kPa, x2 = 0.501 | 151.155
349.96 K, 11997 kPa, x2 = 0.501 | 165.911
349.96 K, 12998 kPa, x2 = 0.501 | 180.741
349.96 K, 14000 kPa, x2 = 0.501 | 195.573
349.96 K, 14998 kPa, x2 = 0.501 | 210.29
349.96 K, 15995 kPa, x2 = 0.501 | 224.908
349.96 K, 16996 kPa, x2 = 0.501 | 239.453
349.96 K, 17996 kPa, x2 = 0.501 | 253.79
349.96 K, 18997 kPa, x2 = 0.501 | 267.945
349.96 K, 19977 kPa, x2 = 0.501 | 281.556
374.94 K, 981.92 kPa, x2 = 0.2 | 9.845
374.94 K, 1992.4 kPa, x2 = 0.2 | 19.995
374.94 K, 3995.7 kPa, x2 = 0.2 | 40.155
374.94 K, 5995.1 kPa, x2 = 0.2 | 60.236
374.94 K, 7995.3 kPa, x2 = 0.2 | 80.217
374.94 K, 9993 kPa, x2 = 0.2 | 99.987
374.94 K, 11990 kPa, x2 = 0.2 | 119.489
374.94 K, 13988 kPa, x2 = 0.2 | 138.676
374.94 K, 16023 kPa, x2 = 0.2 | 157.817
374.94 K, 17847 kPa, x2 = 0.2 | 174.574
374.94 K, 19903 kPa, x2 = 0.2 | 192.989
374.95 K, 987.06 kPa, x2 = 0.501 | 11.492
374.95 K, 1987.8 kPa, x2 = 0.501 | 23.329
374.95 K, 2995.7 kPa, x2 = 0.501 | 35.439
374.95 K, 3994.8 kPa, x2 = 0.501 | 47.603
374.95 K, 4993.3 kPa, x2 = 0.501 | 59.918
374.95 K, 5994.6 kPa, x2 = 0.501 | 72.415
374.95 K, 6995 kPa, x2 = 0.501 | 85.031
374.95 K, 8053.6 kPa, x2 = 0.501 | 98.499
374.95 K, 8965.3 kPa, x2 = 0.501 | 110.186
374.95 K, 9995.9 kPa, x2 = 0.501 | 123.471
374.95 K, 10995 kPa, x2 = 0.501 | 136.416
374.95 K, 11992 kPa, x2 = 0.501 | 149.335
374.95 K, 12992 kPa, x2 = 0.501 | 162.294
374.95 K, 13995 kPa, x2 = 0.501 | 175.285
374.95 K, 14994 kPa, x2 = 0.501 | 188.172
374.95 K, 15990 kPa, x2 = 0.501 | 200.942
374.95 K, 16990 kPa, x2 = 0.501 | 213.677
374.95 K, 17988 kPa, x2 = 0.501 | 226.253
374.95 K, 19119 kPa, x2 = 0.501 | 240.354
374.95 K, 19941 kPa, x2 = 0.501 | 250.44
400.01 K, 996.68 kPa, x2 = 0.2 | 9.356
400.01 K, 1978.2 kPa, x2 = 0.2 | 18.57
400.01 K, 3994 kPa, x2 = 0.2 | 37.452
400.01 K, 5994.7 kPa, x2 = 0.2 | 56.097
400.01 K, 7993.8 kPa, x2 = 0.2 | 74.576
400.01 K, 9990.6 kPa, x2 = 0.2 | 92.826
400.01 K, 11990 kPa, x2 = 0.2 | 110.835
400.01 K, 13987 kPa, x2 = 0.2 | 128.512
400.01 K, 15981 kPa, x2 = 0.2 | 145.821
400.01 K, 17979 kPa, x2 = 0.2 | 162.772
400.01 K, 19979 kPa, x2 = 0.2 | 179.326
400.02 K, 975.89 kPa, x2 = 0.501 | 10.626
400.02 K, 1987.6 kPa, x2 = 0.501 | 21.767
400.02 K, 2995.6 kPa, x2 = 0.501 | 32.992
400.02 K, 3980.9 kPa, x2 = 0.501 | 44.058
400.02 K, 4993.2 kPa, x2 = 0.501 | 55.527
400.02 K, 5994.2 kPa, x2 = 0.501 | 66.95
400.02 K, 6991.4 kPa, x2 = 0.501 | 78.405
400.02 K, 7992.4 kPa, x2 = 0.501 | 89.956
400.02 K, 8994.6 kPa, x2 = 0.501 | 101.571
400.02 K, 9979.8 kPa, x2 = 0.501 | 113.018
400.02 K, 10987 kPa, x2 = 0.501 | 124.751
400.02 K, 11986 kPa, x2 = 0.501 | 136.359
400.02 K, 12984 kPa, x2 = 0.501 | 147.944
400.02 K, 13986 kPa, x2 = 0.501 | 159.545
400.02 K, 14984 kPa, x2 = 0.501 | 171.05
400.02 K, 15985 kPa, x2 = 0.501 | 182.526
400.02 K, 16984 kPa, x2 = 0.501 | 193.894
400.02 K, 17965 kPa, x2 = 0.501 | 204.97
400.02 K, 18983 kPa, x2 = 0.501 | 216.347
400.02 K, 19960 kPa, x2 = 0.501 | 227.147
